Marks after values point to notes of the source that are not given here.
What was measured:
ovine COX-1 = target: T1, ovine COX-1 (Ovis aries, UniProt P05979); test: In vitro COX-1 inhibition, colorimetric ovine COX-1/COX-2 inhibitor screening assay kit; format: biochemical; conditions: for inhibitory activity against COX-1 (in words): compared with the standard drug celecoxib; for IC50: means of three determinations, read at 590 nm, read-out: IC 50 (µM) COX-1
T1 construct: purchased
T1 sequence (P05979 25-600): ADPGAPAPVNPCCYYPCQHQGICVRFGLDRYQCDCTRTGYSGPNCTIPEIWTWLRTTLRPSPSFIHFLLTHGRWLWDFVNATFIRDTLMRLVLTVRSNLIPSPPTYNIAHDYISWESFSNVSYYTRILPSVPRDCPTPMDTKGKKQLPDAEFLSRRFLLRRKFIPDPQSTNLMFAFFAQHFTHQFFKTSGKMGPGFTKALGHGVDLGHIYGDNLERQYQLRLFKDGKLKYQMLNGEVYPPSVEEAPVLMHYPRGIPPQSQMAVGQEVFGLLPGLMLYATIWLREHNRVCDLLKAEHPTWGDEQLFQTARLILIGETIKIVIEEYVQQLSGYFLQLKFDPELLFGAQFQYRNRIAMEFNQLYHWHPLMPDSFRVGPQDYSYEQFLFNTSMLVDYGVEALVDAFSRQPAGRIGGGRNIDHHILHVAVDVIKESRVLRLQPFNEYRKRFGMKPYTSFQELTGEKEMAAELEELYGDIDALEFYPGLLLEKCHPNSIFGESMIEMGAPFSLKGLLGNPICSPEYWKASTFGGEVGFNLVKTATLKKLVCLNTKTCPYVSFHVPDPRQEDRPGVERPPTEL

ovine COX-2 = target: T2, ovine COX-2 (Ovis aries, UniProt P79208); test: In vitro COX-2 inhibition, colorimetric ovine COX-1/COX-2 inhibitor screening assay kit; format: biochemical; conditions: for COX-1/COX-2 selectivity index: IC50 (COX-1)/IC50 (COX-2); for inhibitory activity against COX-2 (in words): compared with the standard drug celecoxib; for IC50: means of three determinations, read at 590 nm, read-out: IC 50 (µM) COX-2
T2 construct: purchased
T2 sequence (P79208 17-603): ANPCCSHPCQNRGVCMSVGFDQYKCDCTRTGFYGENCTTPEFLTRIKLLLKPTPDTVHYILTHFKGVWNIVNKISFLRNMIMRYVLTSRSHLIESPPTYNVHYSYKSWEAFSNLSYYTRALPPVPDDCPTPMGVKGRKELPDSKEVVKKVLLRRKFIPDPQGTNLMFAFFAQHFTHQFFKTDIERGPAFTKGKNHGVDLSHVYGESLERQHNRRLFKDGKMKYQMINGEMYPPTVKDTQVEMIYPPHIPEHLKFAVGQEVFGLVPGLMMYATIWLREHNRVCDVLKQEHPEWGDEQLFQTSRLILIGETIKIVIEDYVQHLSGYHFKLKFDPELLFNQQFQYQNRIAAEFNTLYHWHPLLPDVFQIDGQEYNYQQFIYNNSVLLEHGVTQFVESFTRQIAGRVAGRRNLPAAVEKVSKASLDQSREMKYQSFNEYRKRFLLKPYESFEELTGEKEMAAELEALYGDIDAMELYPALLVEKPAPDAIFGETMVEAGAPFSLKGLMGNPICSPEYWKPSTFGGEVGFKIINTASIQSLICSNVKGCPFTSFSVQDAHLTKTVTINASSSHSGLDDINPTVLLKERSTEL

[1] = tested on: carrageenan induced rat paw edema; test: Carrageenan induced rat paw edema; format: in vivo; conditions: mean ± SD
Method: Carrageenan induced rat paw edema in rats: Fifty rats were divided into ten groups (i.e., each group, five rats). The first group (control), received carboxymethyl cellulose. The second group was given diclofenac sodium as a standard anti-inflammatory drug. Groups (3–10) were orally given the newly synthesized compounds (3–6) in two dosages (5 and 10 mg/kg). Results were expressed as rat paw edema percent. One hour later after administration of tested doses, carrageenan was injected sub planter in the left hind footpad of each rat as 0.05 ml of 1% solution in sterile distilled water. Plethysmometer was used to measure paw edema volume from 0 to 4 h after carrageenan injection. Paw edema volume was compared with vehicle control group and reduction percent was calculated as the following %reduction in edema=1-Vt Vc×100 Where Vt and Vc are the edema volume in the group treated with drug and control, respectively. Results were expressed as mean ± standard deviation (SD). Differences between means were tested for significance using a one-way analysis of variance (ANOVA) followed by Duncan’s test (Table 2).

[2] = DPPH free radical scavenging assay; conditions: for scavenging activity towards the DPPH radicals (in words): compared with ascorbic acid
Method: • DPPH free radical scavenging assay was determined (4). Ascorbic acid was used as reference standard antioxidant.

lipid peroxidation = test: Lipid peroxidation assay
Method: • Lipid peroxidation assay (5 and 6) was calculated as IC50 and recorded in Table 3.

[3] = 5 mg/kg.b.wt oral, 0 h after carrageenan
[4] = 5 mg/kg.b.wt oral, 1 h after carrageenan
[5] = 5 mg/kg.b.wt oral, 2 h after carrageenan
[6] = 5 mg/kg.b.wt oral, 3 h after carrageenan
[7] = 5 mg/kg.b.wt oral, 4 h after carrageenan
[8] = 10 mg/kg.b.wt oral, 0 h after carrageenan
[9] = 10 mg/kg.b.wt oral, 1 h after carrageenan
[10] = 10 mg/kg.b.wt oral, 2 h after carrageenan
[11] = 10 mg/kg.b.wt oral, 3 h after carrageenan
[12] = 10 mg/kg.b.wt oral, 4 h after carrageenan

Row | SMILES | IC50 (ovine COX-1) [µM] | COX-1/COX-2 selectivity index (ovine COX-2) | IC50 (ovine COX-2) [µM] | IC50 (μg/ml) for DPPH Scavenging [2] [µg/mL] | IC50 (μg/ml) for anti-lipid peroxidation (lipid peroxidation) [µg/mL] | melting point [°C] | Inhibition percent of rat paw edema [1, 3] | Inhibition percent of rat paw edema [1, 4] | Inhibition percent of rat paw edema [1, 5] | Inhibition percent of rat paw edema [1, 6] | Inhibition percent of rat paw edema [1, 7] | Inhibition percent of rat paw edema [1, 8] | Inhibition percent of rat paw edema [1, 9] | Inhibition percent of rat paw edema [1, 10] | Inhibition percent of rat paw edema [1, 11] | Inhibition percent of rat paw edema [1, 12] | further results
1 | O=C1O[C@H]([C@@H](O)CO)C(O)=C1O [Ascorbic acid, reference compound] | – | – | – | 13.71 ± 0.75 | 25.72 ± 1.23 | – | – | – | – | – | – | – | – | – | – | – | –
2 | O=C(O)Cc1ccccc1Nc1c(Cl)cccc1Cl [Diclofenac sodium, diclofenac sodium, reference compound] | – | – | – | – | – | – | – | – | – | – | – | – | – | – | – | – | Inhibition percent of rat paw edema ([1]; standard drug, dose not given, 0 h after carrageenan): 0.49 ± 0.032^a %; Inhibition percent of rat paw edema ([1]; standard drug, dose not given, 1 h after carrageenan): 30.22 ± 1.27^a %; Inhibition percent of rat paw edema ([1]; standard drug, dose not given, 2 h after carrageenan): 33.85 ± 1.19^a %; Inhibition percent of rat paw edema ([1]; standard drug, dose not given, 3 h after carrageenan): 36.21 ± 0.93^a %; Inhibition percent of rat paw edema ([1]; standard drug, dose not given, 4 h after carrageenan): 41.10 ± 3.98^a %
3 | O=C(/C=C/c1cccs1)c1cccnc1 [Compound 3, (E)-1-(pyridin-3-yl)-3-(thiophen-2-yl) prop-2-en-1-one] | 3.7 | 9.49 | 0.39 | 10.72 ± 0.54 | 16.81 ± 2.71 | 256 to 258 | 0.48 ± 0.027^ab % | 21.72 ± 0.79^b % | 22.79 ± 1.07^d % | 24.79 ± 0.49^c % | 28.41 ± 1.30^c % | 0.47 ± 0.04^ab % | 31.98 ± 9.35^a % | 29.93 ± 1.43^b % | 34.16 ± 0.61^b % | 41.15 ± 0.750^a % | scavenging activity towards the DPPH radicals (in words) [2]: higher scavenging activity towards the DPPH radicals than that of ascorbic acid

Further lines, with some results ahead:

Row | IC50 (ovine COX-1) [µM] | COX-1/COX-2 selectivity index (ovine COX-2) | IC50 (ovine COX-2) [µM] | IC50 (μg/ml) for DPPH Scavenging [2] [µg/mL] | IC50 (μg/ml) for anti-lipid peroxidation (lipid peroxidation) [µg/mL] | melting point [°C] | SMILES | Inhibition percent of rat paw edema [1, 3] | Inhibition percent of rat paw edema [1, 4] | Inhibition percent of rat paw edema [1, 5] | Inhibition percent of rat paw edema [1, 6] | Inhibition percent of rat paw edema [1, 7] | Inhibition percent of rat paw edema [1, 8] | Inhibition percent of rat paw edema [1, 9] | Inhibition percent of rat paw edema [1, 10] | Inhibition percent of rat paw edema [1, 11] | Inhibition percent of rat paw edema [1, 12] | further results
4 | 4.95 | 5.89 | 0.84 | 15.26 ± 0.44 | 22.67 ± 3.51 | 210 to 212 | N#Cc1c(-c2cccs2)cc(-c2cccnc2)oc1=O [Compound 6, 2-oxo-6-(pyridin-3-yl)-4-(thiophen-2-yl)-2H-pyran-3-carbonitrile] | 0.50 ± 0.02^a % | 9.61 ± 1.12^e % | 12.28 ± 1.38^h % | 17.19 ± 1.26^e % | 18.51 ± 2.26^e % | 0.49 ± 0.01^a % | 13.75 ± 1.15^de % | 17.52 ± 1.13^f % | 20.43 ± 0.65^d % | 22.39 ± 1.16^d % | inhibitory activity against COX-1 (in words) (ovine COX-1): nearly like that of the standard drug; inhibitory activity against COX-2 (in words) (ovine COX-2): nearly like that of the standard drug
5 | 4.02 | 9.13 | 0.44 | 12.64 ± 0.41 | 22.53 ± 3.25 | 220 to 225 | S=c1nc(-c2cccnc2)cc(-c2cccs2)[nH]1 [Compound 4, 4-(pyridin-3-yl)-6-(thiophen-2-yl) pyrimidine-2(1H)-thione] | 0.46 ± 0.03^b % | 18.91 ± 1.19^bc % | 20.07 ± 1.43^e % | 21.96 ± 1.25^d % | 27.38 ± 1.68^c % | 0.49 ± 0.01^ab % | 21.43 ± 0.96^b % | 26.27 ± 49^e % | 33.13 ± 2.64^b % | 37.15 ± 0.69^b % | scavenging activity towards the DPPH radicals (in words) [2]: higher scavenging activity towards the DPPH radicals than that of ascorbic acid
6 | 4.6 | 5.29 | 0.87 | 14.61 ± 0.72 | 23.62 ± 2.31 | 180 to 182 | NNc1nc(-c2cccnc2)cc(-c2cccs2)n1 [Compound 5, 1-(4-(pyridin-3-yl)-6-(thiophen-2-yl)pyrimidin-2-yl)hydrazine] | 0.49 ± 0.01^a % | 11.62 ± 1.24^de % | 14.61 ± 1.81^g % | 18.41 ± 1^e % | 19.48 ± 0.89^e % | 0.48 ± 0.01^ab % | 15.41 ± 0.83^cd % | 18.83 ± 0.75^ef % | 24.19 ± 1.59^c % | 28.59 ± 2.26^c % | inhibitory activity against COX-1 (in words) (ovine COX-1): nearly like that of the standard drug; inhibitory activity against COX-2 (in words) (ovine COX-2): nearly like that of the standard drug
7 | – | – | – | – | – | 225 to 227 | CC1=NN(c2nc(-c3cccnc3)cc(-c3cccs3)n2)C(=O)C1 [Compound 9, 3-methyl-1-(4-(pyridin-3-yl)-6-(thiophen-2-yl)pyrimidin-2-yl)-1H-pyrazol-5(4H)-one] | – | – | – | – | – | – | – | – | – | – | –
8 | – | – | – | – | – | 190 to 192 | Cc1cc(=O)oc2c1c(C)nn2-c1nc(-c2cccnc2)cc(-c2cccs2)n1 [Compound 8, 3,4-dimethyl-1-(4-(pyridin-3-yl)-6-(thiophen-2-yl)pyrimidin-2-yl)pyrano[2,3-c]pyrazol-6(1H)-one] | – | – | – | – | – | – | – | – | – | – | –

From PMC5992111, “Heterocyclization of polarized system: synthesis, antioxidant and anti-inflammatory 4-(pyridin-3-yl)-6-(thiophen-2-yl) pyrimidine-2-thiol derivatives” (Chemistry Central Journal, 2018)
